System: 422866-222-R5-J1-PDC complex spheroid viability
Assay: Anticancer human tumor 422866-222-R5-J1-PDC patient-derived pancreatic adenocarcinoma cell line growth inhibition [POLQ]
Details: for IC50: curve of first compound; for viability, T/C: stronger effect = lower value
Outline: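 Growth inhibition in 3D: complex spheroids (tumor PDC, HUVEC, MSC) treated with POLQ inhibitor combinations; where Cmax unknown, highest tested concentration 10 microM, except SN-38 at 1 microM.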

[1] = second compound 0.0316 µM, first compound 0.0316 µM
[2] = second compound 0.0316 µM, first compound 0.1 µM
[3] = second compound 0.0316 µM, first compound 0.316 µM
[4] = second compound 0.0316 µM, first compound 1 µM
[5] = second compound 0.1 µM, first compound 0.0316 µM
[6] = second compound 0.1 µM, first compound 0.1 µM
[7] = second compound 0.1 µM, first compound 0.316 µM
[8] = second compound 0.1 µM, first compound 1 µM
[9] = second compound 0.316 µM, first compound 0.0316 µM
[10] = second compound 0.316 µM, first compound 0.1 µM
[11] = second compound 0.316 µM, first compound 0.316 µM
[12] = second compound 0.316 µM, first compound 1 µM
[13] = second compound 1 µM, first compound 0.0316 µM
[14] = second compound 1 µM, first compound 0.1 µM
[15] = second compound 1 µM, first compound 0.316 µM
[16] = second compound 1 µM, first compound 1 µM
[17] = second compound 3.16 µM, first compound 0.0316 µM
[18] = second compound 3.16 µM, first compound 0.1 µM
[19] = second compound 3.16 µM, first compound 0.316 µM
[20] = second compound 3.16 µM, first compound 1 µM
[21] = second compound 10 µM, first compound 0.0316 µM
[22] = second compound 10 µM, first compound 0.1 µM
[23] = second compound 10 µM, first compound 0.316 µM
[24] = second compound 10 µM, first compound 1 µM
[25] = second compound 0.0316 µM, first compound 3.16 µM
[26] = second compound 0.0316 µM, first compound 10 µM
[27] = second compound 0.1 µM, first compound 3.16 µM
[28] = second compound 0.1 µM, first compound 10 µM
[29] = second compound 0.316 µM, first compound 3.16 µM
[30] = second compound 0.316 µM, first compound 10 µM
[31] = second compound 1 µM, first compound 3.16 µM
[32] = second compound 1 µM, first compound 10 µM
[33] = second compound 3.16 µM, first compound 3.16 µM
[34] = second compound 3.16 µM, first compound 10 µM
[35] = second compound 10 µM, first compound 3.16 µM
[36] = second compound 10 µM, first compound 10 µM
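Also: spheroids exposed to compounds for one week before readout.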
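For viability, T/C in this document: percent of DMSO vehicle wells luminescence so 100% = untreated viability.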

## C=CCn1c(=O)c2cnc(Nc3ccc(N4CCN(C)CC4)cc3)nc2n1-c1cccc(C(C)(C)O)n1 + COC1C(OC(N)=O)C(O)C(Oc2ccc3c(O)c(NC(=O)c4ccc(O)c(CC=C(C)C)c4)c(=O)oc3c2C)OC1(C)C
Second compound 0.0316 µM
  IC50: 0.418 µM
Second compound 0.1 µM
  IC50: 0.304 µM
Second compound 0.316 µM
  IC50: 0.493 µM
Second compound 1 µM
  IC50: 0.471 µM
Second compound 3.16 µM
  IC50: 0.538 µM
Second compound 10 µM
  IC50: 0.356 µM
Second compound 0.0316 µM, first compound 0.00316 µM
  viability, T/C: 91.1%
Second compound 0.0316 µM, first compound 0.01 µM
  viability, T/C: 106%
[1]
  viability, T/C: 96.3%
[2]
  viability, T/C: 93.2%
[3]
  viability, T/C: 54.3%
[4]
  viability, T/C: 36.6%
Second compound 0.1 µM, first compound 0.00316 µM
  viability, T/C: 98.8%
Second compound 0.1 µM, first compound 0.01 µM
  viability, T/C: 105%
[5]
  viability, T/C: 86.2%
[6]
  viability, T/C: 79.4%
[7]
  viability, T/C: 46.5%
[8]
  viability, T/C: 34.5%
Second compound 0.316 µM, first compound 0.00316 µM
  viability, T/C: 97.4%
Second compound 0.316 µM, first compound 0.01 µM
  viability, T/C: 101%
[9]
  viability, T/C: 103%
[10]
  viability, T/C: 84.4%
[11]
  viability, T/C: 59.1%
[12]
  viability, T/C: 36.6%
Second compound 1 µM, first compound 0.00316 µM
  viability, T/C: 94.8%
Second compound 1 µM, first compound 0.01 µM
  viability, T/C: 105%
[13]
  viability, T/C: 93.8%
[14]
  viability, T/C: 89.5%
[15]
  viability, T/C: 58%
[16]
  viability, T/C: 34.6%
Second compound 3.16 µM, first compound 0.00316 µM
  viability, T/C: 96.7%
Second compound 3.16 µM, first compound 0.01 µM
  viability, T/C: 100%
[17]
  viability, T/C: 91.5%
[18]
  viability, T/C: 79%
[19]
  viability, T/C: 59.1%
[20]
  viability, T/C: 39.7%
Second compound 10 µM, first compound 0.00316 µM
  viability, T/C: 95.7%
Second compound 10 µM, first compound 0.01 µM
  viability, T/C: 84.3%
[21]
  viability, T/C: 98.2%
[22]
  viability, T/C: 79.9%
[23]
  viability, T/C: 51.9%
[24]
  viability, T/C: 38.9%

## CC1COCCN1c1cc(-c2ccnn2C)c2ccnc(-c3ccn[nH]3)c2n1 (stereo unspecified) + COC1C(OC(N)=O)C(O)C(Oc2ccc3c(O)c(NC(=O)c4ccc(O)c(CC=C(C)C)c4)c(=O)oc3c2C)OC1(C)C
Second compound 0.0316 µM
  IC50: > 10 µM
Second compound 0.1 µM
  IC50: > 10 µM
Second compound 0.316 µM
  IC50: > 10 µM
Second compound 1 µM
  IC50: > 10 µM
Second compound 3.16 µM
  IC50: > 10 µM
Second compound 10 µM
  IC50: > 10 µM
[1]
  viability, T/C: 87.7%
[2]
  viability, T/C: 62%
[3]
  viability, T/C: 42.2%
[4]
  viability, T/C: 40%
[25]
  viability, T/C: 85.1%
[26]
  viability, T/C: 67.3%
[5]
  viability, T/C: 90.1%
[6]
  viability, T/C: 52.9%
[7]
  viability, T/C: 39.8%
[8]
  viability, T/C: 46.1%
[27]
  viability, T/C: 87.3%
[28]
  viability, T/C: 79.7%
[9]
  viability, T/C: 96.5%
[10]
  viability, T/C: 51.9%
[11]
  viability, T/C: 35.3%
[12]
  viability, T/C: 39%
[29]
  viability, T/C: 88.5%
[30]
  viability, T/C: 77%
[13]
  viability, T/C: 77.5%
[14]
  viability, T/C: 58.1%
[15]
  viability, T/C: 43.3%
[16]
  viability, T/C: 34.5%
[31]
  viability, T/C: 77.9%
[32]
  viability, T/C: 63.5%
[17]
  viability, T/C: 82.6%
[18]
  viability, T/C: 64.6%
[19]
  viability, T/C: 39.9%
[20]
  viability, T/C: 32%
[33]
  viability, T/C: 88.1%
[34]
  viability, T/C: 78.4%
[21]
  viability, T/C: 82.7%
[22]
  viability, T/C: 55.2%
[23]
  viability, T/C: 46.2%
[24]
  viability, T/C: 33.2%
[35]
  viability, T/C: 81.1%
[36]
  viability, T/C: 71.7%

## CC1COCCN1c1cc(C2(S(C)(=N)=O)CC2)nc(-c2ccnc3[nH]ccc23)n1 (stereo unspecified) + COC1C(OC(N)=O)C(O)C(Oc2ccc3c(O)c(NC(=O)c4ccc(O)c(CC=C(C)C)c4)c(=O)oc3c2C)OC1(C)C
Second compound 0.0316 µM
  IC50: 2.67 µM
Second compound 0.1 µM
  IC50: 2.91 µM
Second compound 0.316 µM
  IC50: 2.83 µM
Second compound 1 µM
  IC50: 2.94 µM
Second compound 3.16 µM
  IC50: 2.56 µM
Second compound 10 µM
  IC50: 4.12 µM
[1]
  viability, T/C: 102%
[2]
  viability, T/C: 111%
[3]
  viability, T/C: 88.4%
[4]
  viability, T/C: 75.6%
[25]
  viability, T/C: 43.9%
[26]
  viability, T/C: 34.1%
[5]
  viability, T/C: 104%
[6]
  viability, T/C: 103%
[7]
  viability, T/C: 91.6%
[8]
  viability, T/C: 75.4%
[27]
  viability, T/C: 46.6%
[28]
  viability, T/C: 34.8%
[9]
  viability, T/C: 95.8%
[10]
  viability, T/C: 91%
[11]
  viability, T/C: 92.5%
[12]
  viability, T/C: 71.8%
[29]
  viability, T/C: 48%
[30]
  viability, T/C: 44.1%
[13]
  viability, T/C: 91.3%
[14]
  viability, T/C: 97.7%
[15]
  viability, T/C: 101%
[16]
  viability, T/C: 69.4%
[31]
  viability, T/C: 54.9%
[32]
  viability, T/C: 39.8%
[17]
  viability, T/C: 107%
[18]
  viability, T/C: 99%
[19]
  viability, T/C: 104%
[20]
  viability, T/C: 77.7%
[33]
  viability, T/C: 44.4%
[34]
  viability, T/C: 39.8%
[21]
  viability, T/C: 97.1%
[22]
  viability, T/C: 99.5%
[23]
  viability, T/C: 112%
[24]
  viability, T/C: 75.5%
[35]
  viability, T/C: 58.7%
[36]
  viability, T/C: 33%
